From the NIST ThermoML archive (doi:10.1021/je900284z)
Values joined by “and” are separate entries in the source; they are usually repeats but may differ in a detail not shown here. Equal values may be shown once. Numbers after ± are expanded uncertainties.

Details: Liquid; for viscosity: Falling or rolling sphere viscometry; for mass density: 101.33 kPa

In the case of `CC(C)CCCC(C)CCCC(C)CCCCC(C)CCCC(C)CCCC(C)C` (stereo not given) [2,6,10,15,19,23-hexamethyltetracosane], the viscosity (273.15 K, 100 kPa) is reported as 116 ± 3.9 mPa·s and 116.2 ± 3.9 mPa·s, the mass density (273.15 K) is reported as 821.58 ± 0.54 kg/m3 and the viscosity (273.15 K, 600 kPa) is reported as 121.9 ± 4.2 mPa·s. It also gave a viscosity (273.15 K, 10600 kPa) of 159.6 ± 6.6 mPa·s, a viscosity (273.15 K, 20600 kPa) of 208 ± 10 mPa·s and a viscosity (273.15 K, 30700 kPa) of 267.6 ± 15 mPa·s. The viscosity (273.15 K, 41400 kPa) was 348.4 ± 23 mPa·s, the viscosity (273.15 K, 50500 kPa) was 442.3 ± 33 mPa·s and the viscosity (283.15 K, 100 kPa) was 59.25 ± 1.3 mPa·s and 59.27 ± 1.3 mPa·s. It also gave a mass density (283.15 K) of 815.16 ± 0.55 kg/m3, a viscosity (283.15 K, 9600 kPa) of 76.31 ± 1.9 mPa·s and a viscosity (283.15 K, 19900 kPa) of 97.69 ± 2.9 mPa·s. For the same compound, the viscosity (283.15 K, 25810 kPa) was 115.2 ± 3.8 mPa·s, the viscosity (283.15 K, 50880 kPa) was 206.5 ± 10 mPa·s and the viscosity (283.15 K, 76760 kPa) was 360.6 ± 24 mPa·s. The viscosity (283.15 K, 100400 kPa) was 573.5 ± 47 mPa·s, the mass density (288.15 K) was 811.95 ± 0.55 kg/m3 and the viscosity (293.15 K, 100 kPa) was 35.97 ± 0.8 mPa·s and 35.96 ± 0.8 mPa·s. The mass density (293.15 K) was 808.74 ± 0.56 kg/m3, the viscosity (298.15 K, 100 kPa) was 28.45 ± 0.63 mPa·s [middle of 6 runs] and the mass density (298.15 K) was 805.55 ± 0.56 kg/m3. The viscosity (298.15 K, 700 kPa) was 28.57 ± 0.63 mPa·s, the viscosity (298.15 K, 800 kPa) was 28.67 ± 0.64 mPa·s and the viscosity (298.15 K, 10800 kPa) was 35.77 ± 0.8 mPa·s. For the same compound, the viscosity (298.15 K, 20600 kPa) was 44.2 ± 0.98 mPa·s, the viscosity (298.15 K, 26000 kPa) was 49.37 ± 1.1 mPa·s and the viscosity (298.15 K, 30800 kPa) was 54.49 ± 1.2 mPa·s. It also gave a viscosity (298.15 K, 40200 kPa) of 65.84 ± 1.5 mPa·s, a viscosity (298.15 K, 50100 kPa) of 80.08 ± 2.1 mPa·s and a viscosity (298.15 K, 50600 kPa) of 81.24 ± 2.1 mPa·s. For the same compound, the viscosity (298.15 K, 51600 kPa) was 84.03 ± 2.2 mPa·s, the viscosity (298.15 K, 60700 kPa) was 98.21 ± 2.9 mPa·s and the viscosity (298.15 K, 70700 kPa) was 118.8 ± 4 mPa·s. For the same compound, the viscosity (298.15 K, 74700 kPa) was 129.5 ± 4.7 mPa·s, the viscosity (298.15 K, 75800 kPa) was 130.3 ± 4.7 mPa·s and the viscosity (298.15 K, 80500 kPa) was 142.3 ± 5.5 mPa·s. It also gave a viscosity (298.15 K, 98800 kPa) of 200.7 ± 9.6 mPa·s, a viscosity (298.15 K, 100100 kPa) of 201.8 ± 9.7 mPa·s and a viscosity (298.15 K, 125900 kPa) of 315.8 ± 20 mPa·s. The viscosity (298.15 K, 150000 kPa) was 465.7 ± 35 mPa·s, the viscosity (298.15 K, 150100 kPa) was 473.5 ± 36 mPa·s and the viscosity (303.15 K, 100 kPa) was 22.58 ± 0.5 mPa·s and 22.86 ± 0.51 mPa·s and 22.84 ± 0.51 mPa·s. For the same compound, the mass density (303.15 K) was 802.34 ± 0.57 kg/m3, the viscosity (313.15 K, 100 kPa) was 15.16 ± 0.34 mPa·s [middle of 6 runs] and the mass density (313.15 K) was 795.93 ± 0.58 kg/m3. It also gave a viscosity (313.15 K, 800 kPa) of 15.15 ± 0.34 mPa·s, a viscosity (313.15 K, 10700 kPa) of 18.58 ± 0.41 mPa·s and a viscosity (313.15 K, 20600 kPa) of 22.64 ± 0.5 mPa·s. For the same compound, the viscosity (313.15 K, 30700 kPa) was 27.33 ± 0.61 mPa·s, the viscosity (313.15 K, 40500 kPa) was 32.69 ± 0.73 mPa·s and the viscosity (313.15 K, 50200 kPa) was 39.01 ± 0.87 mPa·s. The viscosity (313.15 K, 60600 kPa) was 46.76 ± 1 mPa·s, the viscosity (313.15 K, 70600 kPa) was 55.53 ± 1.2 mPa·s and the viscosity (313.15 K, 80600 kPa) was 65.68 ± 1.5 mPa·s. It also gave a viscosity (313.15 K, 91700 kPa) of 78.58 ± 2 mPa·s, a viscosity (313.15 K, 112400 kPa) of 108.9 ± 3.5 mPa·s and a viscosity (313.15 K, 131700 kPa) of 145.3 ± 5.7 mPa·s. For the same compound, the viscosity (313.15 K, 151600 kPa) was 192.8 ± 9 mPa·s, the viscosity (313.15 K, 151900 kPa) was 196.8 ± 9.3 mPa·s and the viscosity (313.15 K, 168600 kPa) was 250 ± 14 mPa·s. The viscosity (313.15 K, 175400 kPa) was 276.7 ± 16 mPa·s, the viscosity (313.15 K, 190000 kPa) was 336.9 ± 22 mPa·s and the viscosity (313.15 K, 190100 kPa) was 340.1 ± 22 mPa·s. For the same compound, the viscosity (313.15 K, 199800 kPa) was 379.2 ± 26 mPa·s, the viscosity (313.15 K, 210400 kPa) was 433.8 ± 32 mPa·s and the viscosity (313.15 K, 227900 kPa) was 549.9 ± 45 mPa·s. For the same compound, the viscosity (313.15 K, 241700 kPa) was 669.3 ± 59 mPa·s, the viscosity (313.15 K, 261500 kPa) was 863.8 ± 83 mPa·s and the viscosity (313.15 K, 279800 kPa) was 1065 ± 110 mPa·s. For the same compound, the viscosity (313.15 K, 300500 kPa) was 1395 ± 160 mPa·s, the viscosity (323.15 K, 100 kPa) was 10.73 ± 0.24 mPa·s and 10.71 ± 0.24 mPa·s and 10.69 ± 0.24 mPa·s and the mass density (323.15 K) was 789.53 ± 0.58 kg/m3. For the same compound, the viscosity (333.15 K, 100 kPa) was 7.856 ± 0.17 mPa·s and 7.861 ± 0.17 mPa·s, the mass density (333.15 K) was 783.14 ± 0.59 kg/m3 and the viscosity (338.15 K, 100 kPa) was 6.785 ± 0.15 mPa·s. The viscosity (338.15 K, 9700 kPa) was 8.064 ± 0.18 mPa·s, the viscosity (338.15 K, 22100 kPa) was 9.958 ± 0.22 mPa·s and the viscosity (338.15 K, 30100 kPa) was 11.36 ± 0.25 mPa·s. The viscosity (338.15 K, 40600 kPa) was 13.4 ± 0.3 mPa·s, the viscosity (338.15 K, 40800 kPa) was 13.45 ± 0.3 mPa·s and the viscosity (338.15 K, 50300 kPa) was 15.55 ± 0.34 mPa·s. It also gave a viscosity (338.15 K, 60000 kPa) of 17.98 ± 0.4 mPa·s, a viscosity (338.15 K, 60700 kPa) of 17.92 ± 0.4 mPa·s and a viscosity (338.15 K, 80700 kPa) of 24.24 ± 0.54 mPa·s. For the same compound, the viscosity (338.15 K, 100600 kPa) was 32.02 ± 0.71 mPa·s, the viscosity (338.15 K, 120400 kPa) was 41.62 ± 0.92 mPa·s and the viscosity (338.15 K, 140400 kPa) was 53.67 ± 1.1 mPa·s. For the same compound, the viscosity (338.15 K, 160300 kPa) was 69.03 ± 1.6 mPa·s, the viscosity (338.15 K, 175300 kPa) was 82.43 ± 2.1 mPa·s and the viscosity (338.15 K, 199800 kPa) was 111 ± 3.6 mPa·s. It also gave a viscosity (338.15 K, 226500 kPa) of 150.6 ± 6 mPa·s, a viscosity (338.15 K, 246000 kPa) of 184.6 ± 8.4 mPa·s and a viscosity (338.15 K, 255100 kPa) of 201.5 ± 9.6 mPa·s. For the same compound, the viscosity (338.15 K, 274800 kPa) was 252.5 ± 14 mPa·s, the viscosity (338.15 K, 275200 kPa) was 246.9 ± 13 mPa·s and the viscosity (338.15 K, 300000 kPa) was 321.5 ± 20 mPa·s. For the same compound, the viscosity (338.15 K, 303600 kPa) was 337.4 ± 22 mPa·s, the viscosity (338.15 K, 324900 kPa) was 416.3 ± 30 mPa·s and the viscosity (338.15 K, 350600 kPa) was 540.2 ± 44 mPa·s. For the same compound, the viscosity (338.15 K, 373000 kPa) was 677.2 ± 60 mPa·s, the viscosity (343.15 K, 100 kPa) was 5.979 ± 0.13 mPa·s [middle of 4 runs] and the mass density (343.15 K) was 776.77 ± 0.6 kg/m3. For the same compound, the viscosity (348.15 K, 100 kPa) was 5.281 ± 0.12 mPa·s and 5.28 ± 0.12 mPa·s and 5.248 ± 0.12 mPa·s, the viscosity (348.15 K, 9700 kPa) was 6.195 ± 0.14 mPa·s and the viscosity (348.15 K, 20600 kPa) was 7.41 ± 0.16 mPa·s. For the same compound, the viscosity (348.15 K, 30800 kPa) was 8.689 ± 0.19 mPa·s, the viscosity (348.15 K, 40900 kPa) was 10.14 ± 0.22 mPa·s and the viscosity (348.15 K, 50400 kPa) was 11.63 ± 0.26 mPa·s. It also gave a viscosity (348.15 K, 60400 kPa) of 13.25 ± 0.29 mPa·s, a viscosity (348.15 K, 60500 kPa) of 13.45 ± 0.3 mPa·s and a viscosity (348.15 K, 70300 kPa) of 15.23 ± 0.34 mPa·s. For the same compound, the viscosity (348.15 K, 70900 kPa) was 15.5 ± 0.34 mPa·s, the viscosity (348.15 K, 80100 kPa) was 17.89 ± 0.4 mPa·s and the viscosity (348.15 K, 80300 kPa) was 17.39 ± 0.39 mPa·s. The viscosity (348.15 K, 90300 kPa) was 19.95 ± 0.44 mPa·s, the viscosity (348.15 K, 90600 kPa) was 20.48 ± 0.45 mPa·s and the viscosity (348.15 K, 100100 kPa) was 22.65 ± 0.5 mPa·s. For the same compound, the viscosity (348.15 K, 100800 kPa) was 23.18 ± 0.51 mPa·s, the viscosity (348.15 K, 200500 kPa) was 71.69 ± 1.7 mPa·s and the viscosity (348.15 K, 225500 kPa) was 93.81 ± 2.7 mPa·s. It also gave a viscosity (348.15 K, 250300 kPa) of 121.8 ± 4.2 mPa·s, a viscosity (348.15 K, 275300 kPa) of 157.1 ± 6.4 mPa·s and a viscosity (348.15 K, 300000 kPa) of 201.5 ± 9.6 mPa·s. The viscosity (348.15 K, 319700 kPa) was 244.4 ± 13 mPa·s, the viscosity (348.15 K, 339600 kPa) was 295.8 ± 18 mPa·s and the viscosity (348.15 K, 359000 kPa) was 356.2 ± 24 mPa·s. For the same compound, the viscosity (348.15 K, 378600 kPa) was 428.5 ± 31 mPa·s, the viscosity (353.15 K, 100 kPa) was 4.692 ± 0.1 mPa·s and 4.695 ± 0.1 mPa·s and the mass density (353.15 K) was 770.42 ± 0.61 kg/m3. The mass density (363.15 K) was 764.06 ± 0.62 kg/m3.
